Reference: patent US11771678B2 (NATIONAL UNIVERSITY CORPORATION KUMAMOTO UNIVERSITY, priority 2016, dated 2023)

How the values were obtained:
[1] = tested on: Adenylate cyclase, CREB, phosphorylated CREB; test: Protein expression analysis by Western Blotting in B42NPCs; format: cell-based, human; details: presence or absence of methylmalonic acid
Description: 2. Meanwhile, the protein expression analysis shown in FIG. 6 was carried out based on the existing Western Blotting method.

Adenylate cyclase = Adenylate cyclase inhibition by methylmalonic acid: cAMP concentration in B42NPCs; format: cell-based, human; details: methylmalonic acid 50 μM or 100 μM in culture fluid, 24 hours
Description: cAMP is produced from ATP by Adenylate cyclase. From this point of view, an investigation was conducted on whether methylmalonic acid would inhibit Adenylate cyclase.

[2] = tested on: lethal methylmalonic acid seizure model; test: In vivo test using survival rate as index, lethal methylmalonic acid seizure model; design: species or system C57BL/6J mice; details: db-cAMP 10 μg/kg/dose subcutaneous
Description: An evaluation of administration of candidate drugs was carried out using the survival rate as an index, using a lethal methylmalonic acid seizure model.
1. A […] methylmalonic acid solution was intraperitoneally administered to eight-week old C57BL/6J mice at a dose of 20 ml/kg, and thus a lethal methylmalonic acid seizure model was produced.
2. After one day, after two days, and after three days from the administration of methylmalonic acid, subcutaneous administration of db-cAMP (10 μg/kg/dose) as a candidate drug was performed, and a comparison of the survival rates in an administered group and a non-administered group was carried out.

[3] = tested on: methylmalonic acidemia-derived NPCs; test: cAMP production ability test with Forskolin (intracellular cAMP ELISA); format: cell-based, human; details: Forskolin 10 μmol/l, after 24 hours; compared with NPCs from normal iPS cells
Description: (3) On the occasion of performing measurement, a pretreatment of cells was carried out. Cells were detached from the culture plate, the number of cells was counted, and centrifugation was performed. After the centrifugation, the supernatant was suctioned, and the residue was suspended in a 0.1 M HCl solution at a concentration of 1×10^6/cells/mL. In the case of cells with a known cell count, a series of these operations was omitted, and 0.1 M HCl was introduced directly onto the culture plate while the cells were adhered. After suspending, the suspension was incubated at room temperature for 10 minutes and then was centrifuged at 600 g/5 minutes. […] (4) For the measurement, measurement was carried out through a series of the following processes. • A neutralizing liquid (Neutralizing reagent) was introduced in an amount of 50 μL into wells other than total activity (TA) and blanks. • Subsequently, 100 μL of a standard diluent was added to non-specific binding (NBS) and BO (0 pmol/mL standard). Furthermore, 50 μL of a standard diluent was added to the wells of NBS. […] The light absorbance at 405 nm was measured. […]

CC(C(=O)O)C(=O)O [methylmalonic acid]
total amounts of protein expression of Adenylate cyclase and CREB [1]: constant
cAMP production power (Adenylate cyclase): as the methylmalonic acid concentration in the culture fluid is higher, the cAMP production power is decreased

CCCC(=O)Nc1ncnc2c1ncn2[C@@H]1O[C@@H]2COP(=O)(O)O[C@H]2[C@H]1OC(=O)CCC [db-cAMP, dibutyl-cAMP]
vital prognosis based on seizure originating from methylmalonic acidemia [2]: markedly ameliorated
survival rate after two days ([2]; non-administered group 14.7%, p<0.001): 75.0%
survival rate one day after the administration of methylmalonic acid ([2]; non-administered group 35.3%): 85.0%

C=C[C@@]1(C)CC(=O)[C@]2(O)[C@@]3(C)[C@@H](O)CCC(C)(C)[C@@H]3[C@H](O)[C@H](OC(C)=O)[C@@]2(C)O1 [Forskolin, (3R,4aR,5S,6S,6aS,10S,10aR,10bS)-6,10,10b-trihydroxy-3,4a,7,7,10a-pentamethyl-1-oxo-3-vinyldodecahydro-1H-benzo[f]chromen-5-yl acetate]
reactivity to Forskolin (intracellular cAMP concentration) [3]: decrease in reactivity to Forskolin was recognized
